15 molecules from PubChem BioAssay (NCI) can be followed below.

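Growth conditions: 96-well plates. Treatment: test compound, 48 hours, 5 concentrations. Analysis: linear interpolation between bracketing concentrations; unreached endpoints set to highest concentration. GI50 is the concentration that inhibits growth by half. TGI: total growth inhibition.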

Some test systems named below: HS 578T breast; MDA-MB-231 breast; MOLT-4 leukemia; NCI-H23 lung; SF-539 CNS; SN12C renal; SW-620 colon; LOX IMVI melanoma; SR leukemia; PC-3 prostate.
What all share (assay): growth of human tumour cells (NCI), 48 h

Take `COc1ccc(C2SCC(=O)N2NC(=O)c2ccc(NC(C)=O)cc2)cc1` (stereo unspecified): the TGI in the test with HS 578T breast, in the test on MDA-MB-231 breast, in the test on MOLT-4 leukemia, with NCI-H23 lung, with SF-539 CNS and with SN12C renal was more than 100 µM throughout. In the test on SW-620 colon, this molecule had a TGI of more than 100 µM.

For `O=C1CCCCCCCCCCC1CN1CCCCC1` (stereo unspecified), the TGI with LOX IMVI melanoma, in the test with MOLT-4 leukemia, with NCI-H23 lung, with SN12C renal, in the test on SR leukemia and in the test on SW-620 colon was more than 100 µM each time.

For `CC(C)(C)C(=O)OC12/C(=N/O)CCCCCC1c1ccccc12` (stereo unspecified), the TGI with LOX IMVI melanoma was 28.8 µM; in the test with MOLT-4 leukemia it was 34.4 µM; in the test on NCI-H23 lung it was 31.3 µM; in the test with SF-539 CNS it was 39 µM; in the test with SN12C renal it was 33.6 µM; in the test on SW-620 colon it was 34.2 µM.

With `CC(=O)OCC1OC(Oc2cc(C)c(O)cc2C/C=C(\C)CC/C=C(\C)CC(=O)CC(C)C)C(O)C(OC(C)=O)C1OC(C)=O` (stereo unspecified), the TGI is 35.2 µM in the test on HS 578T breast; 32.7 µM with LOX IMVI melanoma; 31.1 µM in the test with MDA-MB-231 breast; 19.5 µM in the test with MOLT-4 leukemia; 18.8 µM with NCI-H23 lung; more than 50 µM in the test with PC-3 prostate. Besides, the TGI in the test with SN12C renal was determined as 40.3 µM; in the test on SW-620 colon it was 24.6 µM.

As to `CCCCCCCCCCC1OC([C@@H](O)CC[C@H](O)C2CC[C@@H](CCCCCCCC(O)CC3=CC(C)OC3=O)O2)CCC1O` (stereo partly specified), the GI50 in the test on LOX IMVI melanoma is 1.71 µM; with MDA-MB-231 breast it was 5.88 µM; with MOLT-4 leukemia, 2.76 µM; in the test with NCI-H23 lung it was 1.35 µM; in the test with PC-3 prostate, 2.92 µM; in the test on SW-620 colon it was 4.37 µM. The TGI in the test on LOX IMVI melanoma is more than 12.5 µM; in the test on MDA-MB-231 breast, more than 25 µM; in the test with MOLT-4 leukemia, more than 13.9 µM; in the test with NCI-H23 lung, more than 25 µM; with PC-3 prostate, more than 25 µM; in the test with SF-539 CNS, more than 25 µM. For the same molecule, the TGI with SN12C renal is more than 25 µM; in the test on SR leukemia it was 16.5 µM; with SW-620 colon, more than 25 µM.

In the case of `Nc1ccc(C(=O)c2cn(CCN3CCOCC3)c3ccccc23)c2ccccc12`, the TGI with HS 578T breast was more than 100 µM; with LOX IMVI melanoma it was 73.1 µM; in the test on MOLT-4 leukemia, 52.5 µM; with NCI-H23 lung it was 68 µM; in the test on PC-3 prostate, more than 100 µM; in the test with SF-539 CNS, more than 100 µM. Further, the results for the TGI with SR leukemia and in the test on SW-620 colon were 65.6 µM and more than 100 µM, respectively.

As for `O=C1Nc2ccc(Cl)cc2/C1=C\c1c(Cl)nc2sccn12`, the TGI in the test on LOX IMVI melanoma is more than 100 µM; in the test with MDA-MB-231 breast, more than 100 µM; in the test with MOLT-4 leukemia, 51.9 µM; with NCI-H23 lung, more than 100 µM; in the test on PC-3 prostate it was more than 100 µM; with SN12C renal it was more than 100 µM. Moreover, the TGI in the test on SR leukemia and in the test with SW-620 colon was more than 100 µM in each case.

On to `N#Cc1c(-c2ccccc2)c(N=Nc2ccc(Cl)cc2)c(=O)n2c1[nH]c1ccccc12`, for which the TGI in the test on LOX IMVI melanoma, in the test with MDA-MB-231 breast, in the test on NCI-H23 lung, in the test on PC-3 prostate, in the test with SF-539 CNS and in the test with SN12C renal was more than 100 µM in each case. This molecule also came in with a TGI in the test with SW-620 colon of more than 100 µM.

In the case of `C=C(OC1C(C)=C2C(C1OC(=O)CCCCCCC)C(C)(OC(C)=O)CC(OC(=O)CCC)C1(O)C2OC(=O)C1(C)O)/C(C)=C/C` (stereo unspecified), the GI50 in the test with LOX IMVI melanoma was less than 0.0001 µM; in the test on MOLT-4 leukemia it was 0.000402 µM; with NCI-H23 lung, less than 0.0001 µM; in the test with SF-539 CNS, less than 0.0001 µM; in the test with SN12C renal, 0.0105 µM; in the test on SW-620 colon, less than 0.0001 µM. Moreover, the TGI in the test with MOLT-4 leukemia is 0.177 µM; with NCI-H23 lung, 3.82 µM; with SF-539 CNS it was 8.01 µM; in the test on SN12C renal, 1.91 µM; with SW-620 colon, 2.05 µM.

`Cc1ccc(N(CC(=O)Nc2ccc(S(=O)(=O)N3CCC(N4CCCC4)CC3)cc2)S(=O)(=O)c2ccc(Cl)cc2)cc1`: the GI50 in the test on HS 578T breast was 1.76 µM; with MOLT-4 leukemia it was 1.87 µM; in the test on NCI-H23 lung, 1.8 µM; with PC-3 prostate, 1.88 µM; in the test on SR leukemia it was 0.3 µM; with SW-620 colon, 1.66 µM. For the same molecule, the TGI amounted to 4.39 µM in the test with HS 578T breast; 4.98 µM in the test with MOLT-4 leukemia; 3.87 µM in the test on NCI-H23 lung; 4.05 µM in the test with PC-3 prostate; 0.856 µM in the test on SR leukemia; 3.44 µM in the test with SW-620 colon.

For the molecule `O=C(NCc1cccc2ccccc12)N/N=C\c1ccc(Cl)cc1`, the TGI in the test on LOX IMVI melanoma, in the test on MOLT-4 leukemia, in the test on NCI-H23 lung, in the test on PC-3 prostate, with SF-539 CNS and with SN12C renal was more than 100 µM throughout. The TGI with SR leukemia and with SW-620 colon was more than 100 µM in each case.

Turning to `CCOC(=O)CC1(c2cccc3ccccc23)OC(=O)c2ccccc21` (stereo unspecified), the TGI in the test on LOX IMVI melanoma was more than 100 µM; in the test on MOLT-4 leukemia, 82.4 µM; in the test on NCI-H23 lung, 69.2 µM; with SN12C renal, more than 100 µM; in the test with SW-620 colon, more than 100 µM.

With `Nc1nc(N)c2cc(NCc3ccc(Cl)c(Cl)c3)ccc2n1`, the GI50 was 1.3 µM with MDA-MB-231 breast; 1.19 µM in the test with NCI-H23 lung; 0.623 µM in the test on PC-3 prostate; 1.65 µM in the test with SF-539 CNS; 1.5 µM with SN12C renal; 0.431 µM in the test with SW-620 colon. In addition, the TGI in the test with MDA-MB-231 breast was 2.58 µM; with NCI-H23 lung, 2.61 µM; with PC-3 prostate it was 1.96 µM; in the test on SF-539 CNS, 3.04 µM; with SN12C renal, 2.89 µM; in the test with SW-620 colon it was 1.59 µM.

In the case of `O=C1OC(=O)c2cc(S(=O)(=O)c3ccc4c(c3)C(=O)OC4=O)ccc21`, the TGI with HS 578T breast, in the test with LOX IMVI melanoma, in the test on MDA-MB-231 breast, with NCI-H23 lung, with PC-3 prostate and in the test with SF-539 CNS was more than 100 µM each time. For the same molecule, the TGI in the test with SN12C renal and with SW-620 colon was more than 100 µM each time.

Consider `c1csc(C[N+]23CN4CN(CN(C4)C2)C3)c1`, for which the TGI is 44.6 µM in the test with MOLT-4 leukemia; more than 100 µM in the test on NCI-H23 lung; more than 100 µM in the test with SF-539 CNS; 35.9 µM in the test with SR leukemia; 90.7 µM in the test on SW-620 colon.
